The source made the active and inactive calls. The rule behind the calls is not given here.
Assays:
Ephrin type-A receptor 6 = target: T1, Ephrin type-A receptor 6 (Mus musculus, UniProt Q62413); assay: Displacement of biotinylated Fc-tagged ephrin-A1 from recombinant N/C-terminal 6-his tagged mouse EphA6 (Ser28 to Gln546 residues) preincubated for 1 hr followed by ephrin-A1-Fc addition and measured after 4 to 5 hrs by ELISA assay
T1 sequence (Q62413 whole entry): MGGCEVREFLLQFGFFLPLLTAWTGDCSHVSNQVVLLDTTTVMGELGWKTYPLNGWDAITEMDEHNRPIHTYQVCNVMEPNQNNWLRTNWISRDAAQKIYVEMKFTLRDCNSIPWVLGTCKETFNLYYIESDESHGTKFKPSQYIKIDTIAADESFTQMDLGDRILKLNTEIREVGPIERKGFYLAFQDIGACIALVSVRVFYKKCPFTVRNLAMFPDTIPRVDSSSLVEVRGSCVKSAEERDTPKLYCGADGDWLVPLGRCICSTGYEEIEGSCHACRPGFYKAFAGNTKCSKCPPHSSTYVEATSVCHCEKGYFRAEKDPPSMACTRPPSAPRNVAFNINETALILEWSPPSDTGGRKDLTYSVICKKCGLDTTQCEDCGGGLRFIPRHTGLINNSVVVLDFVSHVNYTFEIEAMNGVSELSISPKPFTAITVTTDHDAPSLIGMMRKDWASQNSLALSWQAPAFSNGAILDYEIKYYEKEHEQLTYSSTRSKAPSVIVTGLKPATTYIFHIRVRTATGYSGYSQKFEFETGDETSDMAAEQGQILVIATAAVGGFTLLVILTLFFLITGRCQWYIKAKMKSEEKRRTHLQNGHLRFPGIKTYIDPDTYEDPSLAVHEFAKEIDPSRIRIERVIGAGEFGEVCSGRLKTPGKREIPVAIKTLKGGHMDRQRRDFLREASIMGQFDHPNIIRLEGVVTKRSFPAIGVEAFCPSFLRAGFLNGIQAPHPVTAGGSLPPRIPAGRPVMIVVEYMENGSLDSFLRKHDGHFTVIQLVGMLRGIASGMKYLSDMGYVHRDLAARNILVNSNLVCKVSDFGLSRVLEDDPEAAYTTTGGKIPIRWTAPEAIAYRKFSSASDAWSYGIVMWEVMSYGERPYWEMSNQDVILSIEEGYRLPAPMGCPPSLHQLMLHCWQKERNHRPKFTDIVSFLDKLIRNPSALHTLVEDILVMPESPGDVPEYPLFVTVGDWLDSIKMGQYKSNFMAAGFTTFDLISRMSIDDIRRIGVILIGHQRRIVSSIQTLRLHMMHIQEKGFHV

U-251 [1] = assay: Cytotoxicity against human U-251 cells at upto 30 uM measured after 2 hrs by CytTox 96 non-radioactive cytotoxicity assay; type: functional, cell-based
[2] = target: Ephrin type-A receptor 2 (Homo sapiens) (UniProt P29317); assay: Antagonist activity at EphA2 in human U-251 cells assessed as inhibition of EphA2 phosphorylation at 10 to 30 uM preincubated for 20 mins followed by ephrin-A1-Fc addition and measured after 10 mins by ELISA assay; type: cell-based; conditions: filed as antagonist, dose 10-30 µM, time 30.0 min
Ephrin type-A receptor 2 (Homo sapiens), sequence (P29317 whole entry): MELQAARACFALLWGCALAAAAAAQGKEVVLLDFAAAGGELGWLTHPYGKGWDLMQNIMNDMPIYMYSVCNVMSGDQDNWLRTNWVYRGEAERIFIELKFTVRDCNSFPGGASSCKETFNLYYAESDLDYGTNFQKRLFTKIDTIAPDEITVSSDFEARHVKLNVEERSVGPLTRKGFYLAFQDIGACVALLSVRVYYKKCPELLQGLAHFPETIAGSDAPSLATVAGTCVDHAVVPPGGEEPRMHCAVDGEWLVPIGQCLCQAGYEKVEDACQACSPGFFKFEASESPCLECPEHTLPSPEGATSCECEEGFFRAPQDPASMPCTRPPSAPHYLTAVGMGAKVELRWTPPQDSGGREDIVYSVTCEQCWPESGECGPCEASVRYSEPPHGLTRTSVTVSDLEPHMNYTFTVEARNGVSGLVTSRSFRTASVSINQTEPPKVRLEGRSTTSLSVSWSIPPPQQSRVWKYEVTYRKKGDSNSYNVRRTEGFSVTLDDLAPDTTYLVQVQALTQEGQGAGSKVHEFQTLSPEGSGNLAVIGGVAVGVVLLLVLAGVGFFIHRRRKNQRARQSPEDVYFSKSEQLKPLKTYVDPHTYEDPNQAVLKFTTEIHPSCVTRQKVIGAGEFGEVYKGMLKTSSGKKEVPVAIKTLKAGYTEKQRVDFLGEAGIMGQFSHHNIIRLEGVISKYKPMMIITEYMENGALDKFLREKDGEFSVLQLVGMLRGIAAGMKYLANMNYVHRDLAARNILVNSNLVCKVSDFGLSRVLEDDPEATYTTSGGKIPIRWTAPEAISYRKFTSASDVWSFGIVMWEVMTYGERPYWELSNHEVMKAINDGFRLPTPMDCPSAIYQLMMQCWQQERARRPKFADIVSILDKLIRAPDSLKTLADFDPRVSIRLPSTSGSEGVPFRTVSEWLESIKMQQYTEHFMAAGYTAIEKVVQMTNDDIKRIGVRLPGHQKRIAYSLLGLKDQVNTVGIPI

U-251 [3] = assay: Effect on EphA2 protein level in human U-251 cells in presence of ephrin-A1 at 30 uM incubated for 4 hrs by ELISA assay; type: functional, cell-based
[4] = target: Ephrin type-A receptor 2 (Homo sapiens) (UniProt P29317); assay: Induction of EphA2 phosphorylation in human U-251 cells; type: cell-based
U-251 [5] = assay: Antiproliferative activity against human U-251 cells assessed as increase in cell death at 30 uM measured after 48 hrs by MTT assay; type: functional, cell-based
Ephrin type-B receptor 2 = target: T2, Ephrin type-B receptor 2 (Mus musculus, UniProt P54763); assay: Displacement of biotinylated Fc-tagged ephrin-B1 from recombinant N/C-terminal 6-his tagged mouse EphB2 (Val27 to Lys548 residues) preincubated for 1 hr followed by ephrin-B1-Fc addition and measured after 4 to 5 hrs by ELISA assay
T2 sequence (P54763 whole entry): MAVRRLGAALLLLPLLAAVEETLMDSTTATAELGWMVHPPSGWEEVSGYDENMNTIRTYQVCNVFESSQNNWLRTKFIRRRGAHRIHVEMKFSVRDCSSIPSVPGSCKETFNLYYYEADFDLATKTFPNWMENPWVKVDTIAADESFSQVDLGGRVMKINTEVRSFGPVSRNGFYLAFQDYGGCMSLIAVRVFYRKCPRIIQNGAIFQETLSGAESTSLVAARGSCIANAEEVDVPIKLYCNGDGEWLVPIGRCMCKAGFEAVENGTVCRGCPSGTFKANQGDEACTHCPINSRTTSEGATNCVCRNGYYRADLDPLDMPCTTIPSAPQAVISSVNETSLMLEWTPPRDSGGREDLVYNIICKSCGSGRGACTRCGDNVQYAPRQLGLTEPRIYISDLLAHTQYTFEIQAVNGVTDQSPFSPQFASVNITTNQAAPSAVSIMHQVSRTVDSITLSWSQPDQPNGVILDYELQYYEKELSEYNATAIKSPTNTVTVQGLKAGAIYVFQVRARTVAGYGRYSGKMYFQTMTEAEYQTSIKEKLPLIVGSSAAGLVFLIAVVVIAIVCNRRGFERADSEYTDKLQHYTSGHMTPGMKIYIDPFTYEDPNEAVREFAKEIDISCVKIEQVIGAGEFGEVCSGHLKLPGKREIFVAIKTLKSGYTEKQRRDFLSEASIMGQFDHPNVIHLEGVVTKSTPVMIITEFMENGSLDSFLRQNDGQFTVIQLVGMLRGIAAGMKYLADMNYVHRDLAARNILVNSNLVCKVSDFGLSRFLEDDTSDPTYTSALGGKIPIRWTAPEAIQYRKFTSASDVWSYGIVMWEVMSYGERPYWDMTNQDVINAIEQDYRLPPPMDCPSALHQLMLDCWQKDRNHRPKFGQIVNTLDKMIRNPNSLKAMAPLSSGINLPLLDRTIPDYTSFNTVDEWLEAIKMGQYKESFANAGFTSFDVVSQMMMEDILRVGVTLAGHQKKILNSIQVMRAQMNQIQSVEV

U-251 [6] = assay: Antiproliferative activity against human U-251 cells assessed as reduction in cell viability at 30 uM measured after 72 hrs by Celltiter-glo ATP based assay; type: functional
Ephrin type-A receptor 2 [7] = target: T3, Ephrin type-A receptor 2 (Mus musculus, UniProt Q03145); assay: Displacement of biotinylated Fc-tagged ephrin-A1 from C/N-terminal 6-His tag mouse recombinant EphA2 (Ala22 to Ala535 residues) assessed as inhibition constant preincubated for 1 hr followed by ephrin-A1-Fc addition and measured after 4 to 5 hrs by ELISA assay
T3 sequence (Q03145 whole entry): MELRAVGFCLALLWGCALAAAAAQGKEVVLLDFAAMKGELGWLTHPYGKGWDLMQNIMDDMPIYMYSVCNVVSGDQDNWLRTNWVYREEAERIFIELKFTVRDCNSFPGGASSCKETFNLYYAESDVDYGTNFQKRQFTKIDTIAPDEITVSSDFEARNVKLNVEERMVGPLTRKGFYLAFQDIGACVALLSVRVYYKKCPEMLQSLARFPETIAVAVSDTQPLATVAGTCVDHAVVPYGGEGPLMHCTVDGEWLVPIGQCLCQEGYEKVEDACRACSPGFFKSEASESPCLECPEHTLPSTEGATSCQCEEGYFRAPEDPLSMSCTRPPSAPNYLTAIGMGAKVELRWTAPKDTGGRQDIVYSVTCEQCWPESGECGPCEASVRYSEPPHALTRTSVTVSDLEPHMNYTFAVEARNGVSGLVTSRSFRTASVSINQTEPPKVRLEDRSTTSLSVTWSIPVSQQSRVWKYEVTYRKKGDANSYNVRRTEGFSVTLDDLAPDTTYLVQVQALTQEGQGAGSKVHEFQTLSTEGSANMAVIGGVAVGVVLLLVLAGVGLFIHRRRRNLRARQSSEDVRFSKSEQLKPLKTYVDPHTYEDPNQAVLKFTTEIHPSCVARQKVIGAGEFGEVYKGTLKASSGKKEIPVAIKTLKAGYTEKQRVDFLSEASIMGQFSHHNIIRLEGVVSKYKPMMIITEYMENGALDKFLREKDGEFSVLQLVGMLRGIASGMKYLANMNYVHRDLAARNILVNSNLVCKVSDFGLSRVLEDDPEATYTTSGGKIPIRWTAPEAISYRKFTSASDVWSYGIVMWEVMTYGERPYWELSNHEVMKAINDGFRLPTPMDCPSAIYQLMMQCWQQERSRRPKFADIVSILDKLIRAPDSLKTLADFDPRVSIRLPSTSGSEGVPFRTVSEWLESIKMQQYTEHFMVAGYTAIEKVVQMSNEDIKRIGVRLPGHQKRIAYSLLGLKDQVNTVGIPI

U-251 [8] = assay: Antiproliferative activity against human U-251 cells assessed as inhibition of cell growth at 10 uM measured after 72 hrs by MTT assay; type: functional, cell-based
Ephrin type-A receptor 2 [9] = target: T3, Ephrin type-A receptor 2; assay: Displacement of biotinylated Fc-tagged ephrin-A1 from C/N-terminal 6-His tagged mouse recombinant EphA2 (Ala22 to Ala535 residues) preincubated for 1 hr followed by ephrin-A1-Fc addition and measured after 4 to 5 hrs by ELISA assay
U-251 [10] = assay: Antiproliferative activity against human U-251 cells assessed as inhibition of cell growth at 30 uM measured after 72 hrs by MTT assay relative to control; type: functional; set-up: scale not given: the % may be the effect or the level left

Row | SMILES | IC50 (Ephrin type-A receptor 6) [µM] | Activity (U-251 [1]) | Activity [2] | Activity (U-251 [3]) | Activity [4] | Activity (U-251 [5]) | IC50 (Ephrin type-B receptor 2) [µM] | Activity (U-251 [6]) | Ki (Ephrin type-A receptor 2 [7]) [µM] | Activity (U-251 [8]) | IC50 (Ephrin type-A receptor 2 [9]) [µM] | Activity (U-251 [10]) [%]
1 | C[C@H](CCC(=O)N[C@H](CC(=O)O)Cc1c[nH]c2ccccc12)[C@H]1CC[C@H]2[C@@H]3CC=C4C[C@@H](O)CC[C@]4(C)[C@H]3CC[C@]12C | 2.9 | – | – | – | – | – | – | – | – | – | – | –
2 | C[C@H](CCC(=O)N[C@H](CC(=O)O)Cc1cn(S(=O)(=O)c2ccc(C(F)(F)F)cc2)c2ccccc12)[C@H]1CC[C@H]2[C@@H]3CC=C4C[C@@H](O)CC[C@]4(C)[C@H]3CC[C@]12C | 10 | inactive | Active | inactive | inactive | Active | > 30 | Active | 2.8 | Active | 2.6 | 100
3 | C[C@H](CCC(=O)N[C@H](CC(=O)O)Cc1cn(S(=O)(=O)c2ccccc2)c2ccccc12)[C@H]1CC[C@H]2[C@@H]3CC=C4C[C@@H](O)CC[C@]4(C)[C@H]3CC[C@]12C | 11 | – | – | – | – | – | > 30 | – | 2.2 | – | 8.1 | –
